Laboratory results reported in article PMC4801368, “Functional and Biochemical Characterization of Alvinella pompejana Cys-Loop Receptor Homologues” (PLoS ONE, 2016).
Like-named read-outs stand apart in the source and are kept apart here.

Assays:
Alpo5-wt = assay: Two-electrode voltage clamp (TEVC) on Alpo5-wt expressed in Xenopus laevis oocytes; format: cell-based, Alvinella pompejana; conditions: for EC50 / Hill coefficient: concentration-activation curve, n = 4; for EC50: Hill fit, -80 mV
Description: (§1) For the expression in Xenopus laevis oocytes, the genes coding for AlpoX-wt were subcloned into the vector pGEM-HE [38]. After NheI-treatment, the linearized plasmid DNA was transcribed to produce capped RNA by using the T7 mMESSAGE-mMACHINE transcription kit (Ambion). Four nanogram of the resulting RNA was injected into the cytosol of stage V and VI oocytes either manually or with an automated injection system (Roboinject, MultiChannelSystems). Oocyte preparations and injections were done using standard procedures.
(§2) One to five days after injection, electrophysiological recordings were performed by conventional or automated TEVC (HiClamp, MultiChannel Systems). […] Unless indicated otherwise, cells were held at a fixed potential of –80 mV throughout the experiment. To minimize heat shock, all preparation and recording procedures were carried out at 16°C [40]. Functional characterization consisted of the screening of potential ligands, the establishment of concentration-activation curves and the determination of ion selectivity. Different small molecules were tested for their effects on AlpoX-wt, such as dopamine, taurine, γ-aminobutyric acid (GABA), glycine and ivermectin (the complete list and the corresponding concentrations are mentioned in Table 1). To determine concentration-activation curves, cells were exposed to increasing concentrations of the test substance. To assess ion selectivity, current-voltage (I-V) relationships were determined in control OR2 solution as well as in medium in which chloride ions were substituted by gluconate. These I-V curves were generated by voltage ramps applied within 4 s and constructed around the reversal potential (Erev ± 80 mV). Leak properties of the cells measured in control conditions were subtracted from the I-V curves measured during exposure to 10 mM GABA.
(§3) Data were acquired either on a manual setup or on an automated recording system (HiClamp, MultiChannel Systems). […] Data acquired with the HiClamp were analyzed using the corresponding software.

Alpo6-wt = assay: Two-electrode voltage clamp (TEVC) on Alpo6-wt expressed in Xenopus laevis oocytes; format: cell-based, Alvinella pompejana; conditions: for Hill-coefficients: activation-response curves; for EC50: concentration-activation curve
Description: as §1, §2, §3

[1] = molecular target: Alpo4-wt (Alvinella pompejana); assay: negative stain EM; purified protein 0.03 mg/mL on carbon-coated copper grids, 1% uranyl formate, 120 kV; 2D class averages for Alpo4-wt

Row | Molecule | agonist type (Alpo5-wt) | EC50 (Alpo5-wt) [µM] | Hill coefficient (Alpo5-wt) | currents evoked at a saturating concentration relative to responses evoked by a saturating concentration of glycine (Alpo5-wt; on average) [%] | agonist type (Alpo6-wt) | Hill-coefficients (Alpo6-wt) | EC50 (Alpo6-wt; n = 3, read-out: EC50 value) [µM] | EC50 (Alpo6-wt; n = 3, read-out: EC50 values) [µM] | stoichiometry N [1] | current evoked by a saturating concentration relative to current evoked by a saturating concentration of glycine (Alpo6-wt; on average) [%]
1 | NCCS(=O)(=O)O [taurine] | partial agonist | 370 ± 30.2 | 2.51 ± 0.18 | 74 | full agonists | 1.87 ± 0.12 | 227 ± 30.5 |  |  | 
2 | NCC(=O)O [glycine] | full-agonists | 291 ± 16.4 | 2.68 ± 0.08 |  | full agonists | 2.20 ± 0.16 |  | 22100 ± 4530 |  | 
3 | Alpo4-wt (receptor) |  |  |  |  |  |  |  |  | 5 | 
4 | NCCCC(=O)O [GABA, γ-aminobutyric acid] | full-agonists |  | 2.49 ± 0.09 |  | partial agonistic effect | 1.94 ± 0.15 |  |  |  | 86
